Results taken from patent US8288390B2, “Benzofuran derivatives” (Takeda Pharmaceutical Company Limited, priority 2009, dated 2012).

System: rat mixed glial culture
Assay: Activity of promoting neuronal neogenesis in rat mixed glial culture
Type: cell-based
Conditions: compound 1 μM + rhIGF-1 100 ng/ml, 3 days culture, absorbance at 450 nm (class III beta-tubulin antibody), control rhIGF-1 only = 100%; for activity at 1 µM: Rattus norvegicus, 72 h, read-out: Increase Ratio of the Absorbance (% control)
Procedure: From a three-day old SD rat, hippocampus and cerebral cortex were removed. By using a kit of dispersion liquid for neuronal cells (MB-X9901, manufactured by SUMITOMO BAKELITE CO., LTD.), cell suspension was prepared and then seeded on a 96-well plate coated with collagen Type I (4860-010, manufactured by Asahi Techno Glass Co., Ltd.) to 10^5 cells/well. Under the condition of 37° C. and 5% CO2, the cells were cultured for four days in a growth medium (D-MEM/F12 with 10% FBS, comprising PS).
After culturing, the medium was exchanged with a medium for differentiation (D-MEM/F12, comprising PS), added with rhIGF-1 (R&D Systems, 291-G1-250, final concentration of 100 ng/ml) and the compound to 1 μM, followed by further culture for three days. Cultured cells were fixed with 4% paraformaldehyde-PBS (manufactured by MUTO PURE CHEMICALS CO., LTD.) and subjected to membrane penetration using 0.1% Triton X-100 PBS, followed by blocking with Block Ace solution (UK-B80, manufactured by Dainippon Sumitomo Pharma Co., Ltd.). As a primary antibody, Anti-neuron-specific class III beta-tubulin antibody (R&D Systems, MAB1195, clone Tuj-1) was used after 1000× dilution. As a secondary antibody, Anti-Mouse Ig, HRP-Linked F (ab′) 2 Fragment Sheep (Amersham Biosciences, NA9310) was used after 10000× dilution. For washing process, the plate washer (BIO-TEK INSTRUMENTS ELX405) was used. For a chromogenic reaction, the reaction was carried out for 10 minutes using TMB Microwell Peroxidase Substrate System (Kirkegaard & Perry Laboratories, 50-76-00), followed by terminating the reaction according to the addition of 1M phosphoric acid. By using the plate reader (Labsystems Multiskan BICHROMATIC), absorbance at 450 nm was measured.
The absorbance for the case in which no compound is added (i.e., control, rhIGF-1 only) was 100%, and the increase ratio of the absorbance for the compound addition (i.e., compound+rhIGF-1) compared to the control was obtained as % control. Activity of the each compound for promoting neuronal differentiation that is measured according to the above method is summarized in Table 9 and Table 10.

SMILES	Increase Ratio of the Absorbance (% control)	activity at 1 µM [%]
COc1ccc(N2CCN(c3c(C)c(C)c4c(c3C)CC(C)(CO)O4)CC2)cc1 (single isomer, unassigned; (+)) [Example 144, (+)-{5-[4-(4-methoxyphenyl)piperazin-1-yl]-2,4,6,7-tetramethyl-2,3-dihydro-1-benzofuran-2-yl}methanol]	>500	
COc1ccc(N2CCN(c3c(C)c(C)c4c(c3C)CC(C)(CO)O4)CC2)cc1 (single isomer, unassigned; (-)) [Example 143, (−)-{5-[4-(4-methoxyphenyl)piperazin-1-yl]-2,4,6,7-tetramethyl-2,3-dihydro-1-benzofuran-2-yl}methanol]	>500	
COc1ccc(N2CCN(c3cc4c(cc3-c3ccc(C)cc3)OC(C)(C)C4)CC2)cc1 [Example 2, 1-[2,2-Dimethyl-6-(4-methylphenyl)-2,3-dihydro-1-benzofuran-5-yl]-4-(4-methoxyphenyl)piperazine]		432
COc1ccc(N2CCN(c3c(C)c(C)c4c(c3-c3ccc(N(C)C)cc3)CC(C)(C)O4)CC2)cc1 [Example 5, 4-{5-[4-(4-Methoxyphenyl)piperazin-1-yl]-2,2,6,7-tetramethyl-2,3-dihydro-1-benzofuran-4-yl}-N,N-dimethylaniline]		488
COc1ccc(N2CCN(c3c(C)c(C)c4c(c3-c3ccoc3)CC(C)(C)O4)CC2)cc1 [Example 6, 1-(4-Furan-3-yl-2,2,6,7-tetramethyl-2,3-dihydro-1-benzofuran-5-yl)-4-(4-methoxyphenyl)piperazine]		> 500
COc1ccc(N2CCN(c3c(C)c(C)c4c(c3C3CC3)CC(C)(C)O4)CC2)cc1 [Example 7, 1-(4-Cyclopropyl-2,2,6,7-tetramethyl-2,3-dihydro-1-benzofuran-5-yl)-4-(4-methoxyphenyl)piperazine]		325
C=Cc1c2c(c(C)c(C)c1N1CCN(c3ccc(OC)cc3)CC1)OC(C)(C)C2 [Example 8, 1-(4-Ethenyl-2,2,6,7-tetramethyl-2,3-dihydro-1-benzofuran-5-yl)-4-(4-methoxyphenyl)piperazine]		242
CCc1c2c(c(C)c(C)c1N1CCN(c3ccc(OC)cc3)CC1)OC(C)(C)C2 [Example 9, 1-(4-Ethyl-2,2,6,7-tetramethyl-2,3-dihydro-1-benzofuran-5-yl)-4-(4-methoxyphenyl)piperazine]		228
COc1ccc(N2CCN(c3c(C)c(C)c4c(c3C(C)C)CC(C)(C)O4)CC2)cc1 [Example 11, 1-(4-Methoxyphenyl)-4-[2,2,6,7-tetramethyl-4-(1-methylethyl)-2,3-dihydro-1-benzofuran-5-yl]piperazine]		159
Cc1ccc(N2CCN(c3c(C)c(C)c4c(c3C)CC(C)(C)O4)CC2)cc1 [Example 12, 1-(4-Methylphenyl)-4-(2,2,4,6,7-pentamethyl-2,3-dihydro-1-benzofuran-5-yl)piperazine]		336
COc1ccc(C2CN(c3c(C)c(C)c4c(c3C)CC(C)(C)O4)CCN2C)cc1 (stereo not drawn) [Example 13, 2-(4-Methoxyphenyl)-1-methyl-4-(2,2,4,6,7-pentamethyl-2,3-dihydro-1-benzofuran-5-yl)piperazine]		265
COc1ccc(C2CN(c3c(C)c(C)c4c(c3C)CC(C)(C)O4)CCO2)cc1 (stereo not drawn) [Example 15, 2-(4-Methoxyphenyl)-4-(2,2,4,6,7-pentamethyl-2,3-dihydro-1-benzofuran-5-yl)morpholine]		332
Cc1c(C)c(N2CCOC(Cc3ccccc3)C2)c(C)c2c1OC(C)(C)C2 (stereo not drawn) [Example 16, 2-Benzyl-4-(2,2,4,6,7-pentamethyl-2,3-dihydro-1-benzofuran-5-yl)morpholine]		344
COc1ccc(N2CCN(c3c(C)c(C)c4c(c3C)CC3(CCCC3)O4)CC2)cc1 [Example 19, 1-(4-Methoxyphenyl)-4-(4,6,7-trimethyl-3H-spiro[1-benzofuran-2,1′-cyclopentan]-5-yl)piperazine]		278
COc1ccc(N2CCN(c3c(C)c(C)c4c(c3C)CC(C)(C)O4)CC2)cc1F [Example 32, 1-(3-Fluoro-4-methoxyphenyl)-4-(2,2,4,6,7-pentamethyl-2,3-dihydro-1-benzofuran-5-yl)piperazine]		> 500
Cc1cc(N2CCN(c3c(C)c(C)c4c(c3C)CC(C)(C)O4)CC2)ccc1F [Example 35, 1-(4-Fluoro-3-methylphenyl)-4-(2,2,4,6,7-pentamethyl-2,3-dihydro-1-benzofuran-5-yl)piperazine]		182
COc1ccc(N2CCN(c3c(C)c(C)c4c(c3C)CC(C)(C)O4)CC2)cc1OC [Example 37, 1-(3,4-Dimethoxyphenyl)-4-(2,2,4,6,7-pentamethyl-2,3-dihydro-1-benzofuran-5-yl)piperazine]		> 500
COc1cc(N2CCN(c3c(C)c(C)c4c(c3C)CC(C)(C)O4)CC2)ccc1F [Example 38, 1-(4-Fluoro-3-methoxyphenyl)-4-(2,2,4,6,7-pentamethyl-2,3-dihydro-1-benzofuran-5-yl)piperazine]		294
COc1ccc(N2CCN(c3c(C)c(C)c4c(c3C)CC(C)(C)O4)CC2)cn1 [Example 40, 1-(6-Methoxypyridin-3-yl)-4-(2,2,4,6,7-pentamethyl-2,3-dihydro-1-benzofuran-5-yl)piperazine]		341
Cc1c(C)c(N2CCN(c3ccc(F)cc3)CC2)c(C)c2c1OC(C)(C)C2 [Example 41, 1-(4-Fluorophenyl)-4-(2,2,4,6,7-pentamethyl-2,3-dihydro-1-benzofuran-5-yl)piperazine]		> 500
COc1ccc(N2CCCN(c3c(C)c(C)c4c(c3C)CC(C)(C)O4)CC2)cc1 [Example 45, 1-(4-Methoxyphenyl)-4-(2,2,4,6,7-pentamethyl-2,3-dihydro-1-benzofuran-5-yl)-1,4-diazepane]		205
CCOc1c(C)c(N2CCN(c3ccc(OC)cc3)CC2)c(C)c2c1OC(C)(C)C2 [Example 46, 1-(7-Ethoxy-2,2,4,6-tetramethyl-2,3-dihydro-1-benzofuran-5-yl)-4-(4-methoxyphenyl)piperazine]		221
COc1ccc(N2CCN(c3c(C)c4c(c(OC)c3C)OC(C)C4)CC2)cc1 (stereo not drawn) [Example 48, 1-(4-Methoxyphenyl)-4-(7-methoxy-2,4,6-trimethyl-2,3-dihydro-1-benzofuran-5-yl)piperazine]		> 500
COc1ccc(N2CCN(c3c(C)c4c(c(OC(C)C)c3C)OC(C)C4)CC2)cc1 (stereo not drawn) [Example 55, 1-(4-Methoxyphenyl)-4-[2,4,6-trimethyl-7-(1-methylethoxy)-2,3-dihydro-1-benzofuran-5-yl]piperazine]		> 500
CCOc1ccc(N2CCN(c3c(C)c4c(c(OC)c3C)OC(C)C4)CC2)cc1 (stereo not drawn) [Example 56, 1-(4-Ethoxyphenyl)-4-(7-methoxy-2,4,6-trimethyl-2,3-dihydro-1-benzofuran-5-yl)piperazine]		> 500
COc1ccc(N2CCN(c3c(C)c4c(c(OC)c3C)OC(C)C4)CC2)cc1F (stereo not drawn) [Example 59, 1-(3-Fluoro-4-methoxyphenyl)-4-(7-methoxy-2,4,6-trimethyl-2,3-dihydro-1-benzofuran-5-yl)piperazine]		478
CCOc1ccc(N2CCN(c3c(C)c4c(c(OCC)c3C)OC(C)C4)CC2)cc1 (stereo not drawn) [Example 61, 1-(4-Ethoxyphenyl)-4-(7-ethoxy-2,4,6-trimethyl-2,3-dihydro-1-benzofuran-5-yl)piperazine]		> 500
